Measured values taken from US11167007B2, “FOXM1 modulators and uses thereof” (City of Hope, priority 2016, dated 2021).

Assays:
FOXM1 = biological target: T1, FOXM1 (Rattus norvegicus, UniProt P97691); assay: RT-qPCR of FOXM1 target gene transcripts in spinal cord; type: in vivo; details: rats, compared to intact controls, FIG. 5G
T1 construct: from tissue; host or cells: Sprague Dawley rat spinal cord
T1 sequence (P97691 1-759): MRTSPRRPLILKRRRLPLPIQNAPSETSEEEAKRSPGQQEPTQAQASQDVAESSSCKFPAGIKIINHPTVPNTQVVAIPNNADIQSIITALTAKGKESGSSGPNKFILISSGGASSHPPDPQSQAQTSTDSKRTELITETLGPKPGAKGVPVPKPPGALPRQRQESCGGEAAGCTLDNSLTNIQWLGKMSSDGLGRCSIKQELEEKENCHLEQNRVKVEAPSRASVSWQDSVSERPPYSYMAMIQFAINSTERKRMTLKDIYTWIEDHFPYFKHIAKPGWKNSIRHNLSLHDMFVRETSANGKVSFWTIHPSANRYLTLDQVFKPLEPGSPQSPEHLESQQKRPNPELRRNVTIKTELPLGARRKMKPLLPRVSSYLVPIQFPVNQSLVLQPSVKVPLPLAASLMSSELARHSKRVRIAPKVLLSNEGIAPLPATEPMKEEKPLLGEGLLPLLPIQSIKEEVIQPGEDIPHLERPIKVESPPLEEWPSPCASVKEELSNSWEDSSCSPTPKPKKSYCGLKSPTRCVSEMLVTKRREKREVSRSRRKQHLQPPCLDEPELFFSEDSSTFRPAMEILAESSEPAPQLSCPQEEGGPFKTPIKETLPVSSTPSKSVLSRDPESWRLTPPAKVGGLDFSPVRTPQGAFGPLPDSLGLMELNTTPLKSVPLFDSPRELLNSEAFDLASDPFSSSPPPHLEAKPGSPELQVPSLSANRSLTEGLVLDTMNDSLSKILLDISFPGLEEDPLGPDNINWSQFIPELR
Description: (§1) Animals and Drugs. This study was carried out in strict accordance with the recommendations in the Guide for the Care and Use of Laboratory Animals of the National Institutes of Health. All experiments were performed under the IUCAC approval of City of Hope. Animals were purchased from Jackson Laboratory (Bar Harbor, Main). For the pilot pharmacokinetic experiment, nine male Sprague Dawley rats (n=3) were administered 1, 10, or 100 mg/kg intraperitoneal injections thrice per week for four weeks. One hour following the final dose, blood and spinal fluid were collected and analyzed by mass spectrometry. For the efficacy experiment, rats were divided into 3 groups (n=7) as follows: intact, castrated, and thiostrepton. […] Following a treatment period of 7 days, rats were euthanized and organs harvested, weighed and processed for quantitative RT-PCR.
(§2) qRT-PCR. The quantitative RT-PCR method has been described by Jones et al, ACS Chem Biol, 3(7):412-8 (2008). […] Differences between experimental (x) and control (y) samples were normalized to RPL19 transcript levels (androgen unresponsive) and determined with the following calculation: (2^(Ctsgene1-Ctygene1))/(2^(CtxRPL19-CtyRPL19)) One-way analysis of variance was applied to determine statistical significant among groups, where p<0.05 was considered significant. […]

[1] = biological target: T2, AR with a 65 glutamine tract (disease associated) (Homo sapiens, UniProt P10275, INS80QQQQQQQQQQQQQQQQQQQQQQQQQQQQQQQQQQQQQQQQQQ); assay: Luciferase reporter assay in HEK293 cells transfected with ARQ65; type: cell-based; details: HEK293, AR 65 glutamines, FIG. 2C
T2 construct: expressed in transfected cells; host or cells: HEK293
Description: Luciferase Reporter Assay. Cells were transfected using Lipofectamine Plus (Invitrogen) with a normalization plasmid (pRL-SV40, Promega) and an androgen responsive plasmid (MMTV-luciferase or PSA-luciferase) as described in Jones et al, ACS Chem Biol, 3(7):412-8 (2008), and, where indicated, with an shRNA plasmid targeting FOXM1 (adapted for mouse FOXM1 sequence targeting) a scrambled control shRNA plasmid, or ARQ24 or ARQ65 plasmids. Christensen et al, PLoS One, 8(1):e54556 (2013). The following day, cells and drugs were distributed to 96-well plates. 24 hours later, luciferase activity was assessed by a dual luciferase assay kit (Promega) on the Tecan plate reader. Samples were run in quadruplicates and a Student's t test was performed to determine significance, where p<0.05 was considered significant.
SBMA is caused by the activity of polyglutamine-expanded AR, and experiments were conducted to investigate the effects of thiostrepton against polyglutamine-expanded AR. AR-negative HEK293 cells were transfected with plasmids encoding AR with a 24 glutamine tract (normal) or with a 65 glutamine tract (disease associated). The polyglutamine-expanded AR was less transcriptionally active than the normal AR, as has been previously documented for such constructs. Kazemi-Esfarjani et al, Hum Mol Genet, 4:523-527 (1995).

[2] = test system: AR activity in muscle or SV; assay: Weights of levator ani muscle and seminal vesicles at end of study; type: in vivo, rat; details: rats, compared to controls
Description: as §1
Androgens are known to control the growth and maintenance of the skeletal muscle and seminal vesicles. […] In order to investigate the impact of thiostrepton on these tissues, their weights at the end of the study were assessed. […] Because an equivalent androgen-dependent change in weight cannot be tested in motor neurons, the levels of tissue-selective androgen regulate genes, as a marker of AR activity, were assessed. […] RNA was isolated from spinal cord and LA muscle tissue and transcript levels were measured by RT-qPCR (FIG. 5F, FIG. 5H). […]

AR activity in LA muscle = assay: RT-qPCR of androgen-regulated transcripts in LA muscle; type: in vivo, rat; details: rats, four genes, FIG. 5H
Description: as §1, §2

T2 sequence (P10275 with tags, fused parts or gaps with the stated changes): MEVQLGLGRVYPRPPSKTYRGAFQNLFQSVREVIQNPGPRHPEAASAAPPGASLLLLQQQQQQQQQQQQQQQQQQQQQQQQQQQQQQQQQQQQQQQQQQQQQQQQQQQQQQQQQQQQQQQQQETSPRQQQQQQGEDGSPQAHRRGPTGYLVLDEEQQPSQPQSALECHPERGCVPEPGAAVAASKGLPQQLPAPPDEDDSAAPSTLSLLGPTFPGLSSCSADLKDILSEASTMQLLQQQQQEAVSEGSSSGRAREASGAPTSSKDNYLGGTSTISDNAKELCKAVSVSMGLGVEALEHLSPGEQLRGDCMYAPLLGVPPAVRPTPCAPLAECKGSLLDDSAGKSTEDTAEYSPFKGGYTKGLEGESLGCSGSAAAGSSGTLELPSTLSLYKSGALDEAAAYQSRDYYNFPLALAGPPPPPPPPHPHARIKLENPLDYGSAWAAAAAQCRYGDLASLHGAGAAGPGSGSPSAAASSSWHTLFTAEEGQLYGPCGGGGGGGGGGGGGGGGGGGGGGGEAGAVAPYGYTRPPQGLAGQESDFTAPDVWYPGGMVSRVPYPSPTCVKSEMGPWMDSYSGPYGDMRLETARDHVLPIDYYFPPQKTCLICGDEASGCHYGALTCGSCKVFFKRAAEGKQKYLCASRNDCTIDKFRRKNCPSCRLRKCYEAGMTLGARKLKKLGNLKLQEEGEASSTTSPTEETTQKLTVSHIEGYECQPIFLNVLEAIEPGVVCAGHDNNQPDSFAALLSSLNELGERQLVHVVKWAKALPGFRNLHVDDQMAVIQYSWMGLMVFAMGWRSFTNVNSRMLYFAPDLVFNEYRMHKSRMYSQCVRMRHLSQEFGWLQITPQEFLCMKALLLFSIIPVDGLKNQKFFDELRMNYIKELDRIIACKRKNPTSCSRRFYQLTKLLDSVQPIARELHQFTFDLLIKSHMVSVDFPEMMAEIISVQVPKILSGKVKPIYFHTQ

C=C(NC(=O)C(=C)NC(=O)c1csc(C2=N[C@@H]3c4csc(n4)[C@H]4NC(=O)c5csc(n5)[C@H]([C@](C)(O)[C@@H](C)O)NC(=O)[C@H]5CSC(=N5)/C(=C/C)NC(=O)[C@H]([C@@H](C)O)NC(=O)c5csc(n5)[C@]3(CC2)NC(=O)[C@H](C)NC(=O)C(=C)NC(=O)[C@H](C)NC(=O)[C@H]([C@@H](C)CC)N[C@@H]2C=Cc3c([C@H](C)O)cc(nc3[C@H]2O)C(=O)O[C@@H]4C)n1)C(N)=O [thiostrepton]
transcript levels of FOXM1 target genes Ccndl and Sox2 (FOXM1): decreased | inhibition of polyglutamine-expanded AR activity (luciferase) [1]: inhibited | levator ani (LA) muscle weight [2]: did not change | seminal vesicles (SV) weight [2]: did not change | androgen-dependent gene transcript levels in LA muscle (AR activity in LA muscle): did not significantly affect
